What all share (type): biochemical
In assay [1] the target is T1, D4ST1 (DS 4-O-sulfotransferase 1) (Homo sapiens, UniProt Q8NCH0).
T1 construct: gene CHST14; D4ST1-HIS (amino acid 61–376)
T1 sequence (Q8NCH0 61-376): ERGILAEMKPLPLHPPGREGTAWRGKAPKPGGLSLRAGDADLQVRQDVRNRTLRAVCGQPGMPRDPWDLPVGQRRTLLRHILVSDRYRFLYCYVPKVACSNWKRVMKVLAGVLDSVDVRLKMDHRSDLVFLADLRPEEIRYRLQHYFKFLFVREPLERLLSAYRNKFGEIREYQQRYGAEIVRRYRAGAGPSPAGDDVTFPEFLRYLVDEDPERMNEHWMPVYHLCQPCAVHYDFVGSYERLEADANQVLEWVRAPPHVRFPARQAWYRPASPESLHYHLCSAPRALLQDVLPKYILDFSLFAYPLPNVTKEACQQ
Kind of assay: sulfotransferase activity assay ([…]PAPS incorporation) with recombinant enzyme.

For the next assay, the target named is T2, DS-epi1 (DS-epimerase 1) (Homo sapiens, UniProt Q9UL01).
T2 construct: gene DSE; truncated form (amino acid 23–775-HIS)
Description: epimerase activity assay (3H release from [[…]-3H]dK4) with recombinant enzyme; dialysis irreversibility test; Lineweaver-Burk kinetics.

The target in assay [2] is T3, HSepi (heparan sulfate glucuronyl C5-epimerase) (Homo sapiens, UniProt O94923).
T3 construct: gene GLCE; full-length, myc-HIS fusion
T3 sequence (O94923 1-617): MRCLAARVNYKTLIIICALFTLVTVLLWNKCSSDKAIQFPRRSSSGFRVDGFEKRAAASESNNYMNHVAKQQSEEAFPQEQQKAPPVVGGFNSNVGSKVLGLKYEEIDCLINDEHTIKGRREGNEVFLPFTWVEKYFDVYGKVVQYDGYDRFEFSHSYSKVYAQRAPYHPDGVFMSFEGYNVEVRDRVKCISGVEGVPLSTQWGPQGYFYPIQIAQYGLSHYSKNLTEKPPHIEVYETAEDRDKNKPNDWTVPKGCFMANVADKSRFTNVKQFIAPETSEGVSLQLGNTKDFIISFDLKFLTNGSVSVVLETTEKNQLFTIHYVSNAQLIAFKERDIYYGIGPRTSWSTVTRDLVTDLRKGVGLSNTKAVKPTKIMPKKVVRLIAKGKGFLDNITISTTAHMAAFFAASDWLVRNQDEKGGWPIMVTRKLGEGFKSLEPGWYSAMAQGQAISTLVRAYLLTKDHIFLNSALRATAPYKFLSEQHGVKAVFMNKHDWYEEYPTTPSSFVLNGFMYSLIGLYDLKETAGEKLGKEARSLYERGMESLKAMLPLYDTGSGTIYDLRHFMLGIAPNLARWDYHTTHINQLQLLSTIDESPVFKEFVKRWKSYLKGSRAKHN
Description: epimerase activity assay (3H release from [[…]-3H]-N-sulfated K5 polysaccharide) with recombinant enzyme.

`O=c1c2ccccc2[se]n1-c1ccccc1` [ebselen, 2-phenyl-1,2-benzoisoselenazol-3(2H)-one]: the IC50 in assay [1] was 1500 nM; at DS-epi1 (DS-epimerase 1) it was 7000 nM; in assay [2] it was 800 nM.

Usually IC50 stands for the concentration that gives 50% inhibition.

The record behind these values is article PMC8600295, “Inhibition of iduronic acid biosynthesis by ebselen reduces glycosaminoglycan accumulation in mucopolysaccharidosis type I fibroblasts” (Glycobiology, 2021).
